{"source": "patent US12459918B2", "about": "“Isoquinolinone derivatives serving as rock protein kinase inhibitors and use thereof” (GUANGZHOU OCUSUN OPHTHALMIC BIOTECHNOLOGY CO., LTD., priority 2019, dated 2025)", "tested_on": "New Zealand rabbits with acute ocular hypertension", "test": "Intraocular pressure reduction experiment in New Zealand rabbits with acute ocular hypertension, experiment operation 1", "assay_type": "in vivo", "settings": "for Intraocular pressure in the left eye: left eye (not modeled); for Intraocular pressure in the right eye: right eye (induced ocular hypertension)", "description": "Experimental Example 3. Intraocular Pressure Reduction Experiment in New Zealand Rabbits with Acute Ocular Hypertension\nAcute ocular hypertension of rabbits were induced by anterior chamber injection of a viscoelastic agent and the intraocular pressure reduction action of compound 60 and compound 63 at different concentrations were explored by eye-drop administration.\nMale New Zealand rabbits, aged 97-127 days, weighted 2.5-3.4 kg, purchased from PizhouDongfang Breeding Co. Ltd.\nMale New Zealand rabbits were randomly divided into 8 rabbits/per group according to body weight using a computer-generated randomization method. The animals in each group were injected with medical sodium hyaluronate gel in the anterior chamber of right eye in a single dose, 100 μL/eye, to induce ocular hypertension. In 5-15 minutes, 3 hours and 6 hours after right eye modeling, both eyes were dropped with a solvent, K-115 or test samples (compound 60 at different concentrations) at a volume of 50 μL/eye and intraocular pressure of the animals was measured before administration and in 1, 2, 4, 6, 8 and 10 hours after administration, respectively.", "key": {"[1]": {"settings": "2.5 mg/mL both eyes, 1 hour after administration"}, "[2]": {"settings": "2.5 mg/mL both eyes, 2 hours after administration"}, "[3]": {"settings": "2.5 mg/mL both eyes, 4 hours after administration"}, "[4]": {"settings": "2.5 mg/mL both eyes, 6 hours after administration"}, "[5]": {"settings": "2.5 mg/mL both eyes, 8 hours after administration"}, "[6]": {"settings": "2.5 mg/mL both eyes, 10 hours after administration"}, "[7]": {"settings": "2.5 mg/mL both eyes, before administration"}, "[8]": {"settings": "5.0 mg/mL both eyes, 1 hour after administration"}, "[9]": {"settings": "5.0 mg/mL both eyes, 2 hours after administration"}, "[10]": {"settings": "5.0 mg/mL both eyes, 4 hours after administration"}, "[11]": {"settings": "5.0 mg/mL both eyes, 6 hours after administration"}, "[12]": {"settings": "5.0 mg/mL both eyes, 8 hours after administration"}, "[13]": {"settings": "5.0 mg/mL both eyes, 10 hours after administration"}, "[14]": {"settings": "5.0 mg/mL both eyes, before administration"}, "[15]": {"settings": "10 mg/mL both eyes, 1 hour after administration"}, "[16]": {"settings": "10 mg/mL both eyes, 2 hours after administration"}, "[17]": {"settings": "10 mg/mL both eyes, 4 hours after administration"}, "[18]": {"settings": "10 mg/mL both eyes, 6 hours after administration"}, "[19]": {"settings": "10 mg/mL both eyes, 8 hours after administration"}, "[20]": {"settings": "10 mg/mL both eyes, 10 hours after administration"}, "[21]": {"settings": "10 mg/mL both eyes, before administration"}}}
{"compound": "Cc1cn(COC(=O)c2ccccc2)c(=O)c2cccc(S(=O)(=O)N3CCC(N)C3)c12", "note": "(stereo not drawn) [Compound 60]", "values": [{"measurement": "Intraocular pressure in the left eye", "setting": "[1]", "value": 5.00, "unit": "mmHg"}, {"measurement": "Intraocular pressure in the left eye", "setting": "[2]", "value": 6.63, "unit": "mmHg"}, {"measurement": "Intraocular pressure in the left eye", "setting": "[3]", "value": 8.29, "unit": "mmHg"}, {"measurement": "Intraocular pressure in the left eye", "setting": "[4]", "value": 10.71, "unit": "mmHg"}, {"measurement": "Intraocular pressure in the left eye", "setting": "[5]", "value": 12.17, "unit": "mmHg"}, {"measurement": "Intraocular pressure in the left eye", "setting": "[6]", "value": 12.00, "unit": "mmHg"}, {"measurement": "Intraocular pressure in the left eye", "setting": "[7]", "value": 12.00, "unit": "mmHg"}, {"measurement": "Intraocular pressure in the right eye", "setting": "[1]", "value": 22.33, "unit": "mmHg"}, {"measurement": "Intraocular pressure in the right eye", "setting": "[2]", "value": 19.75, "unit": "mmHg"}, {"measurement": "Intraocular pressure in the right eye", "setting": "[3]", "value": 20.29, "unit": "mmHg"}, {"measurement": "Intraocular pressure in the right eye", "setting": "[4]", "value": 17.00, "unit": "mmHg"}, {"measurement": "Intraocular pressure in the right eye", "setting": "[5]", "value": 14.54, "unit": "mmHg"}, {"measurement": "Intraocular pressure in the right eye", "setting": "[6]", "value": 12.54, "unit": "mmHg"}, {"measurement": "Intraocular pressure in the right eye", "setting": "[7]", "value": 12.54, "unit": "mmHg"}, {"measurement": "Intraocular pressure in the left eye", "setting": "[8]", "value": 4.96, "unit": "mmHg"}, {"measurement": "Intraocular pressure in the left eye", "setting": "[9]", "value": 5.96, "unit": "mmHg"}, {"measurement": "Intraocular pressure in the left eye", "setting": "[10]", "value": 8.29, "unit": "mmHg"}, {"measurement": "Intraocular pressure in the left eye", "setting": "[11]", "value": 11.21, "unit": "mmHg"}, {"measurement": "Intraocular pressure in the left eye", "setting": "[12]", "value": 11.46, "unit": "mmHg"}, {"measurement": "Intraocular pressure in the left eye", "setting": "[13]", "value": 11.75, "unit": "mmHg"}, {"measurement": "Intraocular pressure in the left eye", "setting": "[14]", "value": 11.75, "unit": "mmHg"}, {"measurement": "Intraocular pressure in the right eye", "setting": "[8]", "value": 21.00, "unit": "mmHg"}, {"measurement": "Intraocular pressure in the right eye", "setting": "[9]", "value": 16.29, "unit": "mmHg"}, {"measurement": "Intraocular pressure in the right eye", "setting": "[10]", "value": 16.75, "unit": "mmHg"}, {"measurement": "Intraocular pressure in the right eye", "setting": "[11]", "value": 14.88, "unit": "mmHg"}, {"measurement": "Intraocular pressure in the right eye", "setting": "[12]", "value": 13.08, "unit": "mmHg"}, {"measurement": "Intraocular pressure in the right eye", "setting": "[13]", "value": 11.25, "unit": "mmHg"}, {"measurement": "Intraocular pressure in the right eye", "setting": "[14]", "value": 11.25, "unit": "mmHg"}, {"measurement": "Intraocular pressure in the left eye", "setting": "[15]", "value": 4.63, "unit": "mmHg"}, {"measurement": "Intraocular pressure in the left eye", "setting": "[16]", "value": 5.50, "unit": "mmHg"}, {"measurement": "Intraocular pressure in the left eye", "setting": "[17]", "value": 9.25, "unit": "mmHg"}, {"measurement": "Intraocular pressure in the left eye", "setting": "[18]", "value": 10.79, "unit": "mmHg"}, {"measurement": "Intraocular pressure in the left eye", "setting": "[19]", "value": 11.75, "unit": "mmHg"}, {"measurement": "Intraocular pressure in the left eye", "setting": "[20]", "value": 12.13, "unit": "mmHg"}, {"measurement": "Intraocular pressure in the left eye", "setting": "[21]", "value": 12.13, "unit": "mmHg"}, {"measurement": "Intraocular pressure in the right eye", "setting": "[15]", "value": 19.83, "unit": "mmHg"}, {"measurement": "Intraocular pressure in the right eye", "setting": "[16]", "value": 17.46, "unit": "mmHg"}, {"measurement": "Intraocular pressure in the right eye", "setting": "[17]", "value": 15.00, "unit": "mmHg"}, {"measurement": "Intraocular pressure in the right eye", "setting": "[18]", "value": 12.33, "unit": "mmHg"}, {"measurement": "Intraocular pressure in the right eye", "setting": "[19]", "value": 11.25, "unit": "mmHg"}, {"measurement": "Intraocular pressure in the right eye", "setting": "[20]", "value": 12.08, "unit": "mmHg"}, {"measurement": "Intraocular pressure in the right eye", "setting": "[21]", "value": 12.08, "unit": "mmHg"}]}
